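Results reflect a 48-hour exposure of cells in 96-well plates to compound at five concentrations. TGI: total growth inhibition.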
Tests used:
Experiment in all cases: growth of human tumour cells (NCI), 48 h
SK-MEL-5 melanoma = test system: SK-MEL-5 melanoma
SK-MEL-2 melanoma = test system: SK-MEL-2 melanoma
K-562 leukemia = test system: K-562 leukemia
HCC-2998 colon = test system: HCC-2998 colon
SN12C renal = test system: SN12C renal
NCI/ADR-RES ovarian = test system: NCI/ADR-RES ovarian
KM12 colon = test system: KM12 colon
SF-539 CNS = test system: SF-539 CNS
RXF 393 renal = test system: RXF 393 renal
HS 578T breast = test system: HS 578T breast
MALME-3M melanoma = test system: MALME-3M melanoma
CCRF-CEM leukemia = test system: CCRF-CEM leukemia
A498 renal = test system: A498 renal

Structure (SMILES)	TGI (SK-MEL-5 melanoma) [µM]	TGI (SK-MEL-2 melanoma) [µM]	TGI (K-562 leukemia) [µM]	TGI (HCC-2998 colon) [µM]	TGI (SN12C renal) [µM]	TGI (NCI/ADR-RES ovarian) [µM]	TGI (KM12 colon) [µM]	TGI (SF-539 CNS) [µM]	TGI (RXF 393 renal) [µM]	TGI (HS 578T breast) [µM]	TGI (MALME-3M melanoma) [µM]	TGI (CCRF-CEM leukemia) [µM]	TGI (A498 renal) [µM]
CC(C)(C)OC(=O)C(C1NC(C(=O)O)C(C)(C)S1)N1C(=O)c2ccccc2C1=O (stereo not drawn)	> 100	> 100	> 100	> 100	> 100	> 100	> 100	> 100	> 100	> 100	> 100	> 100	> 100
CCOC(=O)c1sc2nc(SC)nc(Nc3ccc(OC)c(OC)c3)c2c1N	> 100	> 100	> 100	> 100	> 100	> 100	> 100	> 100	8.97	64.3	> 100	> 100	37.3
C=CCCCC1(C)CCCCNC1=O (stereo not drawn)	> 10	> 10	> 10	> 10	> 10	> 10	> 10	> 10	> 10	> 10	> 10	> 10	> 10
COc1cc(OC)c(/C=N/N=C(\N)NO)c(OC)c1	> 100	> 100	> 100	> 100	> 100	> 100	96.4	> 100	> 100	> 100	> 100	> 100	> 100
CC[C@H](CCCCC1CC[C@@H]2CC(=O)C[C@H]12)OC (stereo partly drawn)	> 100	> 100	> 100	> 100	> 100	> 100	> 100	> 100	> 100	> 100	> 100	> 100	> 100
COc1cc2c(cc1OC)-c1cc3ccccc3c(=O)n1CCC2	28	86.6	> 81.9	> 64.3	78.9	32.2	38	26	57.5	> 100	98.1	33.9	31.5
